Experiments:
Type in all cases: cell-based, human
islet-like clusters = assay: CDK inhibitor III treatment of islet-like clusters in suspension (Stage 7): PCR and dithizone staining (Example 4); conditions: 1 μm
Protocol: The medium was changed daily.
After stage 6, the cells were treated for 5 mins at room temperature with 1× accutase (Sigma, Mo.). The accutase was removed, and DMEM/12+1% B27 was added to the cells. The attached cells were removed using a cell scarper and gently resuspended and passed through a 40 μm cell strainer. The cells retained on the strainer were removed by rinsing in basal media and cultured in suspension on Ultra-Low culture plates (Catalogue#3471, Corning, Ma). […] Cells treated with vehicle were included as controls. Samples were collected at days 7 through 10 for PCR analysis and dithizone staining. The cells cultured in suspension according to the methods outlined in this example assumed a morphology similar to pancreatic islet clusters.

insulin-producing cells [1] = assay: FACS analysis of insulin producing cells (Example 5); conditions: 1 μM for 5 days
Protocol: (§1) DMEM/F12+1% B27 for seven days (Stage 6), then • g. Treatment with Accutase for 5 minutes, followed by scraping to remove any remaining attached cells. The cell suspension was then passed through a 40 μm cell strainer. The cells retained on the strainer were removed by rinsing in basal media and cultured in suspension on Ultra-Low culture plates in DMEM-High Glucose (Catalogue#11995-073, Invitrogen, Ca)+1% B27+20 ng/ml of activin A (AA) 1 μm of CDK inhibitor III (Catalog#217714, Calbiochem, Ca) for 5 days (Stage 7).
Islet-like clusters were dispersed into single cells using TrypLE Express (Invitrogen, Carlsbad, Calif.) and washed in cold PBS. For fixation, the cells were resuspended in 200-300 μl Cytofix/Cytoperm Buffer (BD 554722, BD, Ca) and incubated for 30 min at 4° C. Cells were washed two times in 1 ml Perm/Wash Buffer Solution (BD 554723) and resuspended in 100 μl staining/blocking solution containing 2% normal goat serum in Perm/Wash buffer. For flow cytometric analysis, cells were stained with the following primary antibodies: Anti-Insulin (Rabbit mAb, Cell Signaling No. C279; 1:100 dilution); Anti-Glucagon (Mouse Mab, Sigma No. G2654, 1:100); Anti-Synaptophysin (Rabbit Polyclonal antibody, DakoCytomation No A0010, 1:50). […] Cells were washed at least once in Perm/Wash buffer and analyzed using BD FACSArray. […]

insulin-producing cells [2] = assay: Kinetics of CDK inhibitor-induced MAFA expression, PCR (Example 6)
Protocol: as §1, with “A (AA) 2 μm of” for “A (AA) 1 μm of”, “Ca) for 1-8 days (Stage” for “Ca) for 5 days (Stage”
Samples were collected for PCR analysis at days 1, 2, 3, and 4.

[3] = Stage 7, days 7 through 10, PCR
[4] = 2 μm, days 1-4 of stage 7, increased as a function of time
[5] = four days after removal of the compound

Nc1nc(Nc2ccc(S(N)(=O)=O)cc2)nn1C(=S)Nc1c(F)cccc1F [PubChem ID#5330812, 5-Amino-3-((4-(aminosulfonyl)phenyl)amino)-N-(2,6-difluorophenyl)-1H-1,2,4-triazole-1-carbothioamide] was tested, and the “expression of markers associated with the pancreatic endocrine lineage” value (islet-like clusters; [3]) was “increased the expression”, the “expression of the pro-insulin transcription factor MAFA” value (islet-like clusters; [3]) was “increased the expression” and the “dithazone (DTZ) staining of clusters” value (islet-like clusters; Stage 7, versus untreated clusters) was “more reddish staining pattern”. The “percentage of poly hormonal (insulin and glucagon positive) cells” value (insulin-producing cells [1]; Stage 7, versus vehicle) was “decreased”, the “single hormonal insulin positive cells” value (insulin-producing cells [1]; Stage 7, vehicle 3%) was 8% and the MAFA expression (insulin-producing cells [2]; [4]) was “significant increase”. For the same compound, the insulin expression (insulin-producing cells [2]; [4]) was “significant increase”, the “MAFA expression after removal of CDK inhibitor” value (insulin-producing cells [2]; [5]) was “significant drop” and the “insulin expression after removal of CDK inhibitor” value (insulin-producing cells [2]; [5]) was “significant drop”.
